Measured values: ChEMBL document CHEMBL3994582, “A2B adenosine receptor antagonists: Design, synthesis and biological evaluation of novel xanthine derivatives” (Eur J Med Chem, 2017)

Assays:
Adenosine receptor A2a [1] = molecular target: T1, Adenosine receptor A2a (Homo sapiens, UniProt P29274); assay: Displacement of [3H]-ZM-241385 from human adenosine receptor A2a expressed in HEK293 cell membranes at 0.1 uM after 90 mins by liquid scintillation counting method relative to control
Liver [2] = assay: Metabolic stability in mouse liver microsomes assessed as metabolic rate per mg protein preincubated for 5 mins followed by NADPH addition measured up to 30 mins by LC-MS/MS analysis; type: ADME, microsome; conditions: 0.5 h
[3] = Solubility of the compound; type: physicochemical
Liver [4] = assay: Metabolic stability in human liver microsomes assessed as metabolic rate per mg protein preincubated for 5 mins followed by NADPH addition measured up to 30 mins by LC-MS/MS analysis; type: ADME, microsome; conditions: 0.5 h
[5] = molecular target: T2, Adenosine receptor A3 (Homo sapiens) (UniProt P0DMS8); assay: Displacement of [3H]-HEM-ADO from human adenosine receptor A3 expressed in HEK293 cell membranes at 1 uM after 90 mins by liquid scintillation counting method relative to control
T2 sequence (whole entry): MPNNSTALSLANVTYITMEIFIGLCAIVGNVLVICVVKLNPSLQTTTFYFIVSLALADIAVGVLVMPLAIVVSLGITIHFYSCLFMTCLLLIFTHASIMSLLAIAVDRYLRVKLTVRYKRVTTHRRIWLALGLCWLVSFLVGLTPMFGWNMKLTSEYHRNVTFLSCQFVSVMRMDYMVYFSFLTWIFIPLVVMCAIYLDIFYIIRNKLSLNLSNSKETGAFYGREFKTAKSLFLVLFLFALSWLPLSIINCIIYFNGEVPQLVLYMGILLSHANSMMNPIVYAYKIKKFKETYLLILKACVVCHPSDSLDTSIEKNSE

[6] = molecular target: T3, Adenosine receptor A1 (Homo sapiens) (UniProt P30542); assay: Displacement of [3H]DPCPX from human adenosine receptor A1 expressed in HEK293 cell membranes at 0.1 uM after 90 mins by liquid scintillation counting method relative to control
T3 sequence (whole entry): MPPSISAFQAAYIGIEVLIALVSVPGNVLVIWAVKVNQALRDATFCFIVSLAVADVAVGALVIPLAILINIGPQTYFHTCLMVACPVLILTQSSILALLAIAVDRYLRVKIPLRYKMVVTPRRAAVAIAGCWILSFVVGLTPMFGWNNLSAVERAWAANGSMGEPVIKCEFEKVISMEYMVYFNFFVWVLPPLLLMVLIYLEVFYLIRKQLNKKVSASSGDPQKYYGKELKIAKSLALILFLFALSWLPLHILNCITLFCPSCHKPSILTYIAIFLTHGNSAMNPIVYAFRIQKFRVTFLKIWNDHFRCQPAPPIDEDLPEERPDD

Adenosine receptor A2b [7] = molecular target: T4, Adenosine receptor A2b (Homo sapiens, UniProt P29275); assay: Displacement of [3H]-MRS-1754 from human adenosine receptor A2b expressed in HEK293 cell membranes after 90 mins by liquid scintillation counting method
T4 sequence (P29275 whole entry): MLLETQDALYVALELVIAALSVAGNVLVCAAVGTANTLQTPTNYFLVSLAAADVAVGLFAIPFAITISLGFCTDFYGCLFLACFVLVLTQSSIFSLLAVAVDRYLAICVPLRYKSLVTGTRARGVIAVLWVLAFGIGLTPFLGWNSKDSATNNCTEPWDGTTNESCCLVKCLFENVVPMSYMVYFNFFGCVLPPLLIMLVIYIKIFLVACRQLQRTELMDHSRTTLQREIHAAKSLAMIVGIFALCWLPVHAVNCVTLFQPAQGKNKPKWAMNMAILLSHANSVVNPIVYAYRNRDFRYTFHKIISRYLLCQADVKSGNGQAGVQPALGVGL

Adenosine receptor A1 = molecular target: T5, Adenosine receptor A1 (Homo sapiens, UniProt P30542); assay: Displacement of [3H]DPCPX from human adenosine receptor A1 expressed in HEK293 cell membranes after 90 mins by liquid scintillation counting method
T5 sequence (P30542 whole entry): T3 sequence (whole entry)

Adenosine receptor A2a [8] = molecular target: T1, Adenosine receptor A2a; assay: Displacement of [3H]-ZM-241385 from human adenosine receptor A2a expressed in HEK293 cell membranes after 90 mins by liquid scintillation counting method
Adenosine receptor A2b [9] = molecular target: T4, Adenosine receptor A2b; assay: Antagonist activity at human adenosine receptor A2b expressed in HEK293 cells assessed as inhibition of NECA-induced cAMP level preincubated for 15 mins followed by NECA stimulation for 15 mins by HTRF assay; type: functional, cell-based
Homo sapiens [10] = species on record: Homo sapiens; assay: Selectivity ratio of Ki for human adenosine receptor A1 expressed in HEK293 cell membranes to Ki for human adenosine receptor A2b expressed in HEK293 cell membranes; type: cell-based
Homo sapiens [11] = species on record: Homo sapiens; assay: Selectivity ratio of Ki for human adenosine receptor A2a expressed in HEK293 cell membranes to Ki for human adenosine receptor A2b expressed in HEK293 cell membranes; type: cell-based

T1 sequence (P29274 whole entry): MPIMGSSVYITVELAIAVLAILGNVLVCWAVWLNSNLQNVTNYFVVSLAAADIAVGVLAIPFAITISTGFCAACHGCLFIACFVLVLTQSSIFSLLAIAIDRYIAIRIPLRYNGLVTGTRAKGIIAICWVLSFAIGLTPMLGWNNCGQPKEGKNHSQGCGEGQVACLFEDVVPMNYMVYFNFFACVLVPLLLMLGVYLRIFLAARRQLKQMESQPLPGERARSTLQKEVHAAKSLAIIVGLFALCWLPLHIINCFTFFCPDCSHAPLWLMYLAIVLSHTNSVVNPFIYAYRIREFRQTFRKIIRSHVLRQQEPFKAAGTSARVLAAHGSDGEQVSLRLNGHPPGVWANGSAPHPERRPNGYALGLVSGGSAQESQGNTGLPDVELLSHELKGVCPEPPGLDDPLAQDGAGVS

SMILES	inhibition (Adenosine receptor A2a [1])	Drug metabolism (Liver [2])	solubility [3]	Drug metabolism (Liver [4])	inhibition [5]	inhibition [6]	Ki (Adenosine receptor A2b [7])	Ki (Adenosine receptor A1)	Ki (Adenosine receptor A2a [8])	Ki (Adenosine receptor A2b [9])	Ratio Ki (Homo sapiens [10])	Ratio Ki (Homo sapiens [11])
CCCn1c(=O)c2[nH]c(-c3ccc(OCC4CC(=O)N(c5cccc(C(F)(F)F)c5)C4)nc3)nc2n(CCC)c1=O (centres undefined)	71%	0 nmol/min/mg	Insoluble	0.05 nmol/min/mg	26%	4%	8.7 nM	–	–	–	–	–
CCCn1c(=O)c2[nH]c(-c3ccc(OCC4CC(=O)N(c5ccc(F)cc5)C4)nc3)nc2n(CCC)c1=O (centres undefined)	80%	–	Insoluble	–	53%	30%	4 nM	–	–	–	–	–
CCCn1c(=O)c2[nH]c(-c3ccc(OCC4CC(=O)N(c5ccc(C(F)(F)F)cc5)C4)cc3)nc2n(CCC)c1=O (centres undefined)	60%	0.01 nmol/min/mg	Insoluble	0.05 nmol/min/mg	23%	29%	1 nM	–	–	–	–	–
CCCn1c(=O)c2[nH]c(-c3ccc(OCC4CC(=O)N(c5cccc(C(F)(F)F)c5)C4)cc3)nc2n(CCC)c1=O (centres undefined)	80%	0.06 nmol/min/mg	Insoluble	0.09 nmol/min/mg	13%	1%	7.5 nM	–	–	–	–	–
CCCn1c(=O)c2[nH]c(-c3ccc(OCC4CC(=O)N(c5cccc(F)c5)C4)cc3)nc2n(CCC)c1=O (centres undefined)	89%	–	Insoluble	–	19%	33%	9 nM	–	–	–	–	–
CCCn1c(=O)c2[nH]c(-c3ccc(OCC4CC(=O)N(c5ccc(F)cc5)C4)cc3)nc2n(CCC)c1=O (centres undefined)	89%	–	Insoluble	–	44%	29%	5.4 nM	–	–	–	–	–
CCCn1c(=O)c2[nH]c(-c3cnn(CC(O)C4CC(=O)N(c5cccc(C(F)(F)F)c5)C4)c3)nc2n(CCC)c1=O (centres undefined)	60%	0.22 nmol/min/mg	–	0.19 nmol/min/mg	27%	12%	1.2 nM	–	–	–	–	–
CCCn1c(=O)c2[nH]c(-c3ccc(OCC4CC(=O)N(c5cccc(F)c5)C4)nc3)nc2n(CCC)c1=O (centres undefined)	85%	–	Insoluble	–	53%	17%	4.6 nM	–	–	–	–	–
CCCn1c(=O)c2[nH]c(-c3cc(OCC4CC(=O)N(c5ccc(C(F)(F)F)cc5)C4)no3)nc2n(CCC)c1=O (centres undefined)	18%	0.04 nmol/min/mg	–	0.07 nmol/min/mg	0%	0%	12.8 nM	4200 nM	2900 nM	540 nM	328	226
CCCn1c(=O)c2[nH]c(-c3cnn(CCC4CC(=O)N(c5cccc(C(F)(F)F)c5)C4)c3)nc2n(CCC)c1=O (centres undefined)	65%	0.3 nmol/min/mg	–	0.14 nmol/min/mg	29%	40%	2.6 nM	–	–	–	–	–
CCCn1c(=O)c2[nH]c(-c3cnn(CC4CCN(c5cccc(C(F)(F)F)c5)C4)c3)nc2n(CCC)c1=O (centres undefined)	57%	0 nmol/min/mg	–	0.01 nmol/min/mg	2%	38%	3.6 nM	–	–	–	–	–
CCCn1c(=O)c2[nH]c(-c3cnn(CC(=O)N4CCN(c5ccc(F)cc5F)CC4)c3)nc2n(CCC)c1=O	56%	0.23 nmol/min/mg	–	0.11 nmol/min/mg	0%	45%	10.7 nM	–	–	–	–	–

Further lines, with some results ahead:

inhibition (Adenosine receptor A2a [1])	Drug metabolism (Liver [2])	solubility [3]	Drug metabolism (Liver [4])	inhibition [5]	inhibition [6]	Ki (Adenosine receptor A2b [7])	Ki (Adenosine receptor A1)	Ki (Adenosine receptor A2a [8])	Ki (Adenosine receptor A2b [9])	SMILES	Ratio Ki (Homo sapiens [10])	Ratio Ki (Homo sapiens [11])
33%	0.15 nmol/min/mg	–	0 nmol/min/mg	0%	22%	12 nM	346 nM	192 nM	4 nM	CCCn1c(=O)c2[nH]c(-c3cnn(CC4CC(=O)N(c5ccc(F)cc5)C4)c3)nc2n(CC)c1=O (centres undefined)	28	16
37%	0.29 nmol/min/mg	–	0.06 nmol/min/mg	0%	30%	24 nM	–	–	–	CCCn1c(=O)c2[nH]c(-c3cnn(CC4CC(=O)N(c5cccc(F)c5)C4)c3)nc2n(CC)c1=O (centres undefined)	–	–
20%	0 nmol/min/mg	–	0.15 nmol/min/mg	2%	18%	23 nM	–	–	–	CCCn1c(=O)c2[nH]c(-c3cnn(CC4CC(=O)N(c5ccc(C#N)cc5)C4)c3)nc2n(CCC)c1=O (centres undefined)	–	–
24%	0.24 nmol/min/mg	–	0.13 nmol/min/mg	0%	23%	4 nM	–	–	–	CCCn1c(=O)c2[nH]c(-c3cnn(CC4CC(=O)N(c5ccc(OC(F)(F)F)cc5)C4)c3)nc2n(CCC)c1=O (centres undefined)	–	–
49%	0.57 nmol/min/mg	–	0.23 nmol/min/mg	0%	20%	9 nM	–	–	–	CCCn1c(=O)c2[nH]c(-c3cnn(CC4CC(=O)N(c5cccc(OC(F)(F)F)c5)C4)c3)nc2n(CCC)c1=O (centres undefined)	–	–
51%	0.22 nmol/min/mg	–	0.19 nmol/min/mg	27%	38%	9 nM	–	–	–	CCCn1c(=O)c2[nH]c(-c3cnn(CC4CC(=O)N(c5ccc(OC)cc5)C4)c3)nc2n(CCC)c1=O (centres undefined)	–	–
42%	0.19 nmol/min/mg	–	0.06 nmol/min/mg	14%	31%	9.7 nM	–	–	–	CCCn1c(=O)c2[nH]c(-c3cnn(CC4CC(=O)N(c5ccc(F)cc5)C4)c3)nc2n(CCC)c1=O (centres undefined)	–	–
21%	0.07 nmol/min/mg	–	0.11 nmol/min/mg	14%	15%	16 nM	711 nM	486 nM	14 nM	CCCn1c(=O)c2[nH]c(-c3cnn(CC4CC(=O)N(c5ccc(OC)cc5)C4)c3)nc2n(CC)c1=O (centres undefined)	44	30
0%	0.46 nmol/min/mg	–	0.18 nmol/min/mg	0%	29%	10.7 nM	–	–	–	CCCn1c(=O)c2[nH]c(-c3cnn(CC4CC(=O)N(c5cccc(C)c5)C4)c3)nc2n(CCC)c1=O (centres undefined)	–	–
23%	0.49 nmol/min/mg	–	0.12 nmol/min/mg	0%	18%	4.5 nM	–	–	–	CCCn1c(=O)c2[nH]c(-c3cnn(CC4CC(=O)N(c5cccc(C(F)(F)F)c5)C4)c3)nc2n(CC)c1=O (centres undefined)	–	–
26%	0.15 nmol/min/mg	–	0.16 nmol/min/mg	2%	23%	14 nM	–	–	–	CCCn1c(=O)c2[nH]c(-c3cnn(CC4CCN(c5ccc(OC(F)(F)F)cc5)C4)c3)nc2n(CCC)c1=O (centres undefined)	–	–
7%	0.03 nmol/min/mg	–	0.02 nmol/min/mg	32%	51%	6 to 8 nM	340 nM	36 nM	191 nM	CCCn1c(=O)c2[nH]c(-c3cnn(CC4CCN(c5ccc(OC(F)(F)F)cc5)C4=O)c3)nc2n(CCC)c1=O (centres undefined)	56	6
48%	0.61 nmol/min/mg	–	0.18 nmol/min/mg	31%	25%	6.5 nM	–	–	–	CCCn1c(=O)c2[nH]c(-c3cnn(CC4CC(=O)N(c5cccc(C(F)(F)F)c5)C4)c3)nc2n(CCC)c1=O (centres undefined)	–	–
